Measurements from the supplement of paper PMC11451515.

How the values were obtained:
Details in all cases: 48 h
NOMO1 = assay: cell viability relative to DMSO control; higher = less cytotoxic
Procedure, shortened: (§1)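 Before seeding, each leukemia line was adapted for at least four passages in each medium. NOMO1 or SEM cells (500 cells/well) and P12-Ichikawa cells (1000 cells/well) went into 1536-well plates at 5 μl, then received library compounds in DMSO by pin dosing across 11 threefold concentrations, 47 μM to 0.79 nM. Readout was CellTiter-Glo One luminescence after 48 h at 37°C, and viability is given as a per-plate percentage of DMSO wells, with cell-free wells as background.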

P12-Ichikawa = assay: as above
Procedure, shortened: as §1

SEM cells [1] = assay: as above
Procedure, shortened: as §1

SEM cells [2] = assay: AUC of viability dose-response curve (% viability x log10 dose units); higher = less sensitive
Procedure, shortened: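 Area under the curve was integrated by trapezoidal rule from a log-logistic fit of normalised viability, with curves exceeding full viability scaled and quality-control failures removed. The fit had four parameters over log10 doses. Viability came from CellTiter-Glo One luminescence, normalised per plate to DMSO and cell-free wells, after leukemia cells adapted to each medium (500 or 1000 cells/well, 1536-well plates) were exposed to library compounds in DMSO for 48 h at 37°C. The 11 threefold doses ran from 47 μM to 0.79 nM.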

CC(C)[C@@H](N(CCCN)C(=O)C1=CC=C(C)C=C1)C/2=C(\CC3=CC=CC=C3)C(=O)C4=C(O2)C=C(Cl)C=C4
cell viability [%]
Details	NOMO1	P12-Ichikawa	SEM cells [1]
HPLM + 10% dialyzed FBS, 0.000781 µM	47.8	37.7	22.2
HPLM + 10% dialyzed FBS, 0.00234 µM	38.1	12.6	26.3
HPLM + 10% dialyzed FBS, 0.00702 µM	34.7	11.5	24.4
HPLM + 10% dialyzed FBS, 0.0211 µM	35.9	14.2	24.6
HPLM + 10% dialyzed FBS, 0.0632 µM	40.9	9.91	26.6
HPLM + 10% dialyzed FBS, 0.19 µM	45.8	11.7	23.9
HPLM + 10% dialyzed FBS, 0.569 µM	34.9	12.2	28.2
HPLM + 10% dialyzed FBS, 1.71 µM	36.3	11	25.2
HPLM + 10% dialyzed FBS, 5.12 µM	32.5	10.3	25.7
HPLM + 10% dialyzed FBS, 15.4 µM	40.7	11.8	26.6
HPLM + 10% dialyzed FBS, 46.1 µM	4.73	12.8	5.56
RPMI 5 mM glucose + 10% FBS, 0.000781 µM	20.1	18.4	13.8
RPMI 5 mM glucose + 10% FBS, 0.00234 µM	26.5	15.8	20.2
RPMI 5 mM glucose + 10% FBS, 0.00702 µM	29	15	19.9
RPMI 5 mM glucose + 10% FBS, 0.0211 µM	26.4	18.5	22.5
RPMI 5 mM glucose + 10% FBS, 0.0632 µM	21.9	18	20
RPMI 5 mM glucose + 10% FBS, 0.19 µM	29	17.6	22.6
RPMI 5 mM glucose + 10% FBS, 0.569 µM	21.1	14	22.4
RPMI 5 mM glucose + 10% FBS, 1.71 µM	23.9	17.7	19.1
RPMI 5 mM glucose + 10% FBS, 5.12 µM	27.2	15.8	27.9
RPMI 5 mM glucose + 10% FBS, 15.4 µM	31.7	15.7	20.9
RPMI 5 mM glucose + 10% FBS, 46.1 µM	7.48	9.01	13.9
RPMI 5 mM glucose + 10% dialyzed FBS, 0.000781 µM	48.7	70.7	18.5
RPMI 5 mM glucose + 10% dialyzed FBS, 0.00234 µM	34.7	20.4	20.5
RPMI 5 mM glucose + 10% dialyzed FBS, 0.00702 µM	29.5	20.7	20
RPMI 5 mM glucose + 10% dialyzed FBS, 0.0211 µM	30.9	21.9	25.6
RPMI 5 mM glucose + 10% dialyzed FBS, 0.0632 µM	35.1	22.4	19.4
RPMI 5 mM glucose + 10% dialyzed FBS, 0.19 µM	34.6	22.5	26.5
RPMI 5 mM glucose + 10% dialyzed FBS, 0.569 µM	27.2	18.6	20
RPMI 5 mM glucose + 10% dialyzed FBS, 1.71 µM	32.8	20.9	21.1
RPMI 5 mM glucose + 10% dialyzed FBS, 5.12 µM	29.6	21.2	20.8
RPMI 5 mM glucose + 10% dialyzed FBS, 15.4 µM	33.5	19.8	18.5
RPMI 5 mM glucose + 10% dialyzed FBS, 46.1 µM	5.92	16.2	19.4

SEM cells [2]
Details	AUC of viability dose-response curve
HPLM + 10% dialyzed FBS	116
RPMI 5 mM glucose + 10% FBS	96.8
RPMI 5 mM glucose + 10% dialyzed FBS	99.8
